Among the data in ChEMBL document CHEMBL1833897, “Lead generation of heat shock protein 90 inhibitors by a combination of fragment-based approach, virtual screening, and structure-based drug design” (Bioorg Med Chem Lett, 2011) are Kd and IC50 values, retold here.

SMILES strings stand for the structures.

In experiment [1] the target is T1, Heat shock protein HSP 90-alpha (Homo sapiens, UniProt P07900).
Description: Binding affinity to human HSP90alpha assessed as 2D1H-15N chemical shift perturbation by NMR spectroscopy
For experiment [2], the target named is T1, Heat shock protein HSP 90-alpha. The source holds these as a separate data set.
Description: Inhibition of human N-terminal GST-tagged HSP90alpha expressed in Escherichia coli after 1 hr using 10 mM of ATP and malachite green by microplate reader
Experiment [3] has the same target. This is another data set of the same source.
Description: Binding affinity to biotinylated N-terminal human HSP90alpha using of streptavidin coated surface by SPR binding assay

With `CSc1nc(N)nc(-c2ccncc2)n1`, in experiment [1], the Kd is greater than 1 µM.

In turn, `Nc1cnccn1` displayed a Kd in experiment [1] of 79 µM. In experiment [1], `CSc1nc(N)nc(SCc2ccc(Cl)cc2)n1` yielded a Kd of 3.7 µM. In experiment [2], this molecule came in with an IC50 of 24 µM. On to `CSc1nc(N)nc(SCc2ccccc2)n1`, for which the IC50 in experiment [2] amounted to 16 µM. This lies in the double-digit micromolar range. `CSc1nc(N)nc(-c2ccccc2C)n1`: the affinity in experiment [1], expressed as Kd, was 4.5 µM. Further, the IC50 in experiment [2] stood at 0.57 µM. In experiment [1], `Nc1ncc2c(n1)-c1ccoc1CC2` returned a dissociation constant (Kd) of 0.33 µM. As for `CCCc1nc(N)ncc1C(=O)OCC`, binding in experiment [1] was put at a Kd of 0.34 µM. This Kd and that of the molecule before are within 1.5-fold of each other.

The molecule `Nc1nccc(-c2nccs2)n1` had a Kd in experiment [1] of 0.57 µM.

In the case of `CC(=O)c1cnc(N)nc1C`, the Kd in experiment [1] was greater than 1 µM. Consider `Nc1ccncn1`, for which the Kd in experiment [1] was 300 µM. On to `CSc1nc(N)nc(SCCN2CCOCC2)n1`, for which, in experiment [1], the Kd worked out at 2.3 µM. The IC50 in experiment [2] came out at 33 µM. Take `Oc1ccc2c(c1)CCc1c[nH]nc1-2`: the Kd in experiment [3] came out at 750 nM. `CSc1nc(N)nc(-c2ccccc2)n1` had a Kd in experiment [1] of 51 µM. The molecule further yielded a half-inhibitory concentration (IC50) in experiment [2] of 31 µM. For `Nc1ncncn1`, the affinity in experiment [1], expressed as Kd, was 10 µM.

A word on the Kd: it is the free concentration of one partner at which half of the binding sites on the other are occupied at equilibrium, for simple one-to-one binding. A higher Kd goes with lower affinity. As a reminder, the IC50 is the point on the concentration scale where inhibition reaches its midpoint.
